Data on 91 compounds can be found in a melting point compilation (Tetko et al.; mined from patent text by program, amines drawn as free bases though some values may be those of a salt).

Molecules are shown by their SMILES.

In turn, `COC1=C(OC)C(=O)C(CCCCC#CCCCCO)=C(C)C1=O` showed a melting point of 52 to 53 °C.

As for `O=S1(=O)NCN(C2CC2)c2cccc(Br)c21`, the melting point was 189 to 191 °C.

Compound `COc1ccc(Nc2ccccc2C(=O)CS(C)=O)cc1` (stereo unspecified) showed a melting point of 115 to 116 °C.

The compound `CC12CC(F)C3C4CCC(=O)C=C4CC(CCCCCBr)C3C1CCC2=O` (stereo unspecified) came in with a melting point of 75 to 76 °C.

In the case of `CC(C)(C)c1cc(C2N[C@H](C(=O)O)CS2)cc(C(C)(C)C)c1O` (stereo partly specified), the melting point lay within 163 to 165 °C.

`COc1ccc2cc(CC3=C(CC(=O)O)CCCC3=O)ccc2c1Br` registered a melting point of 165 to 166 °C.

Turning to `CC(C)CCOc1ccc(-c2c(Cl)c(CCl)nc3sc4c(c23)CCN(Cc2ccccc2)C4)cc1`, the melting point was in the range of 149 to 150 °C.

Consider `O=C(CN(C(=O)c1cccc(C(F)(F)F)c1)c1ccccc1)Nc1ccc(Cl)c(Cl)c1`, for which the melting point lay in the range of 130 to 132 °C.

`COC(=O)c1cccc(O)c1O` returned a melting point of 79 to 81 °C.

Take `Cc1ccc2c(c1)C(c1ccc(OCC(=O)O)cc1)C(=O)O2` (stereo unspecified): the melting point lay within 198 to 203 °C.

The compound `N#CCc1cc(Cl)cc(Cl)c1` showed a melting point of 31 to 32 °C.

Compound `c1ccc(-c2ccc3[nH]c4ccccc4c3c2)cc1` yielded a melting point of 221 °C.

Take `COc1cc2c(cc1OCc1ccccc1)C(C#N)C2` (stereo unspecified): the melting point was found to be 85 °C.

The compound `COc1ccc(N2CCN(c3c(C)c(C)c4c(c3C)C(N3CCc5ccccc53)C(C)(C)O4)CC2)cc1` (stereo unspecified) yielded a melting point of 166 to 168 °C.

In turn, `COC(=O)c1nc(N)ccc1O` returned a melting point of 170 to 173 °C.

With `Cc1cc([N+](=O)[O-])ccc1C(=O)Nc1ccc2ccc(Cl)nc2n1`, the melting point was determined as 229 °C.

`O=Cc1cc(Cl)ccc1Oc1ccc(Cl)cc1[N+](=O)[O-]` yielded a melting point of 128 to 130 °C.

With `CCOC(=O)c1c(Cn2nccn2)nc2cc(OC)c(OC)cc2c1-c1ccc(OC)c(OC)c1`, the melting point lay in the range of 163 to 164 °C.

`N#Cc1cccc(/C=C/c2cc(Cl)cnc2N)c1` yielded a melting point of over 275 °C.

Regarding `CN1CCN(c2cccc3c2C[C@H](NC(=O)c2ccc(N4CCOCC4)cc2)CC3)CC1`, the melting point fell in the range of 230 to 231 °C.

In turn, `COc1ccc(CCOc2ccnc(Cl)c2)cc1OC` yielded a melting point of 116 to 117 °C.

On to `Cn1ncc(/C=C/C(=O)O)c1-c1cccnc1`, for which the melting point is 236 to 237 °C.

As to `Cn1c(C=O)cc2cccc(F)c21`, the melting point fell in the range of 61 to 63 °C.

Regarding `Cc1oc2ccc(N)cc2c(=O)c1C`, the melting point was in the range of 202 to 204 °C.

The compound `CNc1cc(F)c(C=O)cc1F` came in with a melting point of 133 to 138 °C.

With `CC(=O)c1ccc(Cc2ccc(F)cc2)o1`, the melting point lay in the range of 27 to 29 °C.

Take `CCCNC(=O)C1(CCCCC#N)c2ccccc2-c2ccccc21`: the melting point was 102 to 104 °C.

In turn, `CC(C)c1ccc([N+](=O)[O-])c(C(C)C)c1NC(=O)CN1CCN(CCSc2nc3cccc(C(F)(F)F)c3o2)CC1` registered a melting point of 115 to 117 °C.

In the case of `COc1cccc(NC(=O)NC2N=C(c3ccccc3)c3ccccc3N(C)C2=O)c1` (stereo unspecified), the melting point lay within 216 to 219 °C.

`Cc1ccc(S(=O)(=O)OCC2CCn3c(nc4ccccc43)S2)cc1` (stereo unspecified) came in with a melting point of 145 to 147 °C.

`CN1C(=O)C(N)N=C(c2ccccc2)c2ccncc21` (stereo unspecified) returned a melting point of 94 to 118 °C.

In turn, `O=C(CCS(=O)C(c1ccccc1)c1ccccc1)NO` (stereo unspecified) showed a melting point of 159 to 160 °C.

Turning to `CCOC(=O)CN1C(=O)C(=O)N(C)C1=O`, the melting point is 97 to 98.5 °C.

`COC(=O)C(Cc1ccccc1)Oc1ccc2cc(CN(C)C(=O)c3oc4ccccc4c3CCc3ccccc3)ccc2c1Br` (stereo unspecified) came in with a melting point of 29 to 32 °C.

The compound `Cc1cc2c(c(-c3cccc(Cl)c3)c1)OC(CN)C2` (stereo unspecified) gave a melting point of 90 to 93 °C.

Compound `CCN(CC)C(=O)c1cc2sccc2c(-c2ccccc2Cl)n1` had a melting point of 119 °C.

With `CCOC(=O)c1c(C(F)(F)F)nc(C(F)F)c(C(=O)OC)c1CS(C)(=O)=O`, the melting point is 110 to 112 °C.

The compound `Oc1ccccc1OCC1NCCS1` (stereo unspecified) gave a melting point of 76 to 78 °C.

For the compound `COC(C)(C)C(C#N)=NOCc1coc(-c2ccc(F)cc2)n1`, the melting point was in the range of 75 to 77 °C.

Compound `Cc1[nH]cnc1CSCCN(C)C(N)=S` came in with a melting point of 149 to 151 °C.

`CCc1noc(-c2cn(-c3ccc(Cl)cn3)cn2)n1` gave a melting point of 224 to 226 °C.

Consider `CCOc1ccc(N2CCN(c3c(C)c4c(c(OC)c3C)OC(C)(C)C4)CC2)cc1`, for which the melting point was 152 to 154 °C.

On to `CC12CC(=O)C3C(CCC4CC(O)CCC43C)C1CCC2C(=O)CCOC(=O)CCl` (stereo unspecified), for which the melting point is 95 to 97 °C.

Compound `Cc1ccc(CNc2nc(Nc3cccc(C(F)(F)F)c3)nc(OCC(F)(F)F)n2)o1` came in with a melting point of 72 to 74 °C.

For `Cc1noc(C)c1CN1C(=O)C2(COc3cc4c(cc32)OCO4)c2ccccc21` (stereo unspecified), the melting point fell in the range of 165 to 167 °C.

Regarding `Cn1c(=O)c(-c2c(Cl)cccc2Cl)cc2cnc(Nc3cccc(C(=O)O)c3)nc21`, the melting point was over 300 °C.

`CNc1nc(C)c(-c2ccnc(Nc3ccc(N4CCN(C(C)=O)CC4)cc3)n2)s1` returned a melting point of 213 to 214 °C.

As for `COc1cccc(-c2noc(-c3ccccn3)n2)c1`, the melting point was 90 to 94 °C.

In the case of `Cc1ccc2oc(=O)c(C(=O)Oc3cc(Cl)ccc3Cl)cc2c1`, the melting point lay in the range of 175 to 179 °C.

Consider `C=CCN(C)c1ccc(C(C#N)=C(C#N)C#N)cc1`, for which the melting point was found to be 155 °C.

In turn, `O=C(NC(=O)c1c(F)cccc1F)Nc1ccc(F)c(C(F)(F)F)c1Cl` registered a melting point of 214 °C.

Compound `CC(=O)c1ccc(NC(=O)c2ccc(C3OCC(SC(C)C(O)(Cn4cncn4)c4ccc(F)cc4F)CO3)cc2)cc1` (stereo unspecified) yielded a melting point of 171 °C.

On to `CC1(C=O)CC1(c1cccc(F)c1)c1cccc(F)c1` (stereo unspecified), for which the melting point fell in the range of 92 to 93 °C.

In turn, `C#CCOc1cc(N2C(=O)C3CCCCN3C2C(=O)OCC)c(F)cc1Cl` (stereo unspecified) registered a melting point of 72 to 75 °C.

In turn, `Brc1cccc(Br)c1OC1C=CC(Oc2c(Br)cccc2Br)C1` (stereo unspecified) had a melting point of 205 to 206 °C.

Compound `O=C(c1cccnc1)c1cc(-c2cccnc2)c(N2CCOCC2)s1` gave a melting point of 145 °C.

`COc1ccc(Cc2cnc(N)nc2N)cc1OCc1ccccc1` had a melting point of 210 to 212 °C.

`CC(C)(C)c1ccc(C(=O)Nc2cn3cc(-n4cncn4)ccc3n2)cc1` registered a melting point of 274 to 276 °C.

In the case of `c1ncn(Cc2ccc3c(c2)Cc2c(-c4ccsc4)n[nH]c2-3)n1`, the melting point is 252 to 257 °C.

In the case of `COc1cccc2c1CC1CC(CN3CCC(c4c[nH]c5ccccc45)CC3)CN(C)C1C2` (stereo unspecified), the melting point fell in the range of 220 to 223 °C.

`O=C(Nc1ccc(Cl)c(Cl)c1)OC1CN2CCC1CC2` (stereo unspecified) registered a melting point of 181 to 184 °C.

Compound `Cc1c(C)c(N2C(=O)c3cc(Cl)c(Cl)cc3C2=O)c(C)c2c1OC(C)(C)C2c1ccc(F)cc1` (stereo unspecified) showed a melting point of 232 to 233 °C.

For `CCC(C(C)C)C(OC(C)=O)C(OC(C)=O)C(C)C1CCC2C3CC(=O)C4CC=CCC4(C)C3CCC12C` (stereo unspecified), the melting point is 116 to 118 °C.

In turn, `CNC(=O)c1ccc(N2CC(CNC(C)=S)OC2=O)cc1F` (stereo unspecified) showed a melting point of 176 to 177 °C.

The compound `CC(C)[C@H](NCCC#N)C(=O)O` had a melting point of 245 to 250 °C.

As to `CCOCc1nc2c(N)nc3ccccc3c2n1N(C)C`, the melting point lay within 213 to 215 °C.

`COC(=O)NN=Cc1nc(-c2cccc(C)c2)[nH]c1C`: the melting point lay within 162 to 164 °C.

In the case of `O=C(NCCCCSc1ccncc1)c1ccccc1`, the melting point lay in the range of 75 to 77 °C.

Regarding `Cn1cccc1C(=O)c1ccc2ccccc2c1`, the melting point lay within 108 to 110 °C.

With `CCOC(=O)C(C(=O)OCC)c1cccc2nnsc12`, the melting point fell in the range of 72 to 74 °C.

Regarding `BrCCCCCCCCn1nnc(-c2ccccc2)c1-c1ccccc1`, the melting point is 90 to 91 °C.

`CC(=O)OCCn1c(C)c(C(=O)Nc2ccc(OCC(C)(C)C)c(C#N)c2)c2cc(F)ccc21` yielded a melting point of 124 to 125 °C.

Turning to `OC1C2CCN(CC2)C1CN1CCCCC1` (stereo unspecified), the melting point lay in the range of 130 to 131 °C.

Compound `O=C(Nc1ccc2oc3c(c2c1)CCCC3)c1ccccc1` had a melting point of 178 to 180 °C.

With `O=[N+]([O-])c1ccc(NCC23CCCN2CCC3)c2ccccc12`, the melting point lay in the range of 143 to 144 °C.

Regarding `CCCCCCCNC(=O)N(C)c1cccc(-c2ccc(CCC(=O)O)cn2)c1`, the melting point is 118 °C.

The compound `CCCCc1oc2ccccc2c1C(=O)NCc1ccc2c(-c3ccc(OC)cc3)c(OC(Cc3ccccc3)C(=O)OC)ccc2c1` (stereo unspecified) returned a melting point of 103 to 105 °C.

Turning to `CCOc1ccc(-c2ccc(Cl)cc2)cc1C=O`, the melting point lay in the range of 88 to 90 °C.

`Cc1cc(C)nc(NC(=O)NS(=O)(=O)c2sccc2-c2ccon2)n1` registered a melting point of 172 to 173 °C.

The compound `NC(=O)N1CCC(C2c3ncc(Br)cc3CCc3cc(Cl)cc(Cl)c32)CC1` (single isomer, unassigned; (+)) displayed a melting point of 102 to 103 °C.

In turn, `COC(=O)C=Cc1cnc(C(=O)OC)cc1C(=O)OC` registered a melting point of 126 to 128 °C.

The compound `Clc1cccc(Cl)c1CN1CCNc2ncc(I)cc21` yielded a melting point of over 200 °C.

On to `C[Si](C)(C)C#Cc1ccc(I)cc1`, for which the melting point lay in the range of 57 to 59 °C.

`CC(C)(C)OC(=O)Cn1c2ccccc2c2c(N3CCCC3)nc(N3CCCC3)nc21` showed a melting point of 131 to 133 °C.

For `NC(=O)Cc1ccc(CCCOCCCCCCBr)cc1`, the melting point is 110 to 113 °C.

The compound `CCc1cc(C(=O)c2ccccc2Cl)c(-n2cnnc2CNC(=O)c2ccc(Cl)c(Cl)c2)s1` gave a melting point of 158 to 160 °C.

On to `CC(C)(C)c1ccc(C#N)cc1[N+](=O)[O-]`, for which the melting point lay within 70.5 to 71.5 °C.

Take `O=c1c2c(Cc3cccc(O)c3)n[nH]c2c2cccnc2n1-c1ccccc1`: the melting point lay within 276 to 278 °C.

Consider `CN(C)S(=O)(=O)c1cccc2c1Sc1ccc(O)cc1N2`, for which the melting point lay in the range of 208 to 210 °C.

`COc1cccc(C(=O)O)c1CCc1cccc(Cl)c1`: the melting point came to 91 °C.

Take `N#CC(=Cc1ccc(O)c(O)c1)C(=O)Nc1ccc(Cl)cc1`: the melting point amounted to 290 °C.
